Measured values from PMC4911231 (Journal of acquired immune deficiency syndromes (1999), 2016).
Values joined by “and” are separate entries in the source; they are usually repeats but may differ in a detail not shown here. Identical values can stand only once. Like-named read-outs stand apart in the source and are kept apart here. Marks after values point to notes of the source that are not given here.

Assays:
[1] = cited from earlier work
clinical = details: female, human, in vivo
HIV-1 [2] = experiment: Maternal plasma HIV-1 RNA; type: in vivo, human; details: rilpivirine with combination antiretrovirals
[3] = Maternal safety, pregnancy and infant outcomes; type: in vivo, human
[4] = Stability in stored plasma; type: physicochemical; details: plasma stored at −70°C
HIV-1 [5] = details: cited from earlier work
[6] = cited from earlier work; remark: listed apart in the source
[7] = cited from earlier work; remark: listed apart in the source
[8] = system: cytochrome P450 3A4 (CYP 3A4); details: cited from earlier work
[9] = cited from earlier work; remark: listed apart in the source
[10] = for AUC24 geometric mean (90% CI) ratio: within-subject; for Tmax: mode (range); for Vd/F: Vd/F (apparent volume of distribution); for AUC: one subject on concomitant darunavir/ritonavir
[11] = 25 mg once daily, postpartum, median (range)
[12] = 25 mg once daily, second trimester, median (range)
[13] = 25 mg once daily, third trimester, median (range)
[14] = Second Trimester/Postpartum, n = 15
[15] = Second Trimester/Third Trimester, n = 15
[16] = Third Trimester/Postpartum, n = 28
[17] = female, human, plasma, oral, 25 mg, 25 mg once daily, second trimester, median (range)

## Cc1c(O)cccc1C(=O)N[C@@H](CSc1ccccc1)[C@H](O)CN1C[C@H]2CCCC[C@H]2C[C@H]1C(=O)NC(C)(C)C [nelfinavir]
[1]; HIV protease inhibitors
  AUC during pregnancy compared to postpartum: significant decreases

## Cc1cccc(C)c1OCC(=O)N[C@@H](Cc1ccccc1)[C@@H](O)C[C@H](Cc1ccccc1)NC(=O)[C@H](C(C)C)N1CCCNC1=O [lopinavir]
[1]; in vivo
  AUC during pregnancy compared to postpartum: significant decreases

## CC(C)CN(C[C@@H](O)[C@H](Cc1ccccc1)NC(=O)O[C@H]1CO[C@H]2OCC[C@H]21)S(=O)(=O)c1ccc(N)cc1 [darunavir]
[1]; HIV protease inhibitors
  AUC during pregnancy compared to postpartum: significant decreases

## Cc1cc(/C=C/C#N)cc(C)c1Nc1ccnc(Nc2ccc(C#N)cc2)n1 [Rilpivirine]
clinical
  Kp: 0.55
  Maternal plasma rilpivirine concentration at delivery, median (range): 103.3 (<10 to 273.4) ng/mL
  Umbilical cord blood rilpivirine concentration at delivery, median (range): 53.78 (<10 to 219.7) ng/mL
HIV-1 [2]
  HIV-1 RNA at 2nd trimester, median (range): < 40 (<20 – 2770) copies/mL
  HIV-1 RNA at 3rd trimester, median (range): < 20 (<20 – 48700) copies/mL
  HIV-1 RNA at Delivery, median (range): < 20 (<16 – 48700) copies/mL
[3]; at 32, 35, and 36 weeks, N of 30
  Number of preterm deliveries: 3 (10%)
[3]; in vivo
  Gestational age at delivery, median (range): 38.9 (32.3 – 41.4) weeks
  Infant Birth weight, median (range): 3095 (1570 – 4570) g
[3]; pregnant and postpartum women, 25 mg once daily
  Tolerability: well tolerated
[4]
  Stability in plasma: 2 years
HIV-1 [5]
  median EC50: 0.27 ng/mL
  median EC90: 0.66 ng/mL
  protein binding-adjusted EC50: 5.0 ng/mL
[6]
  Bound to protein: 99.7%
[7]; one person
  Cord blood to maternal plasma ratio: 0.74
[7]; two women, one value each
  Reduction in exposure during pregnancy compared to postpartum: 30% and 43%
[8]
  Substrate of cytochrome P450 3A4: substrate
[9]; human, in vivo
  Coefficient of variation (CV) for AUC: 38%
[9]; non-pregnant adults
  10th percentile rilpivirine AUC: 880 ng·h/mL
[10]; [11]
  C0 (pre-dose concentration): 69 (<10 – 285) ng/mL
  C24 (24 hour post-dose concentration): 81 (<10 – 299) ng/mL
  Cmin (minimum observed concentration): 58 (<10 – 200) ng/mL
[10]; [12]
  C0 (pre-dose concentration): 98(31 – 216) ^‡ ng/mL
  C24 (24 hour post-dose concentration): 63(37 – 225) ^* ng/mL
  Cmin (minimum observed concentration): 65(29 – 178) ng/mL
[10]; [13]
  C0 (pre-dose concentration): 56(<10 – 210) ng/mL
  C24 (24 hour post-dose concentration): 56(<10 – 181) ^† ng/mL
  Cmin (minimum observed concentration): 51(<10 – 136) ng/mL
[10]; 2nd trimester
  Coefficient of variation (CV) for Cmax: 53%
  Coefficient of variation (CV) for Cmin: 55%
[10]; 2nd trimester, between-subject
  Coefficient of variation (CV) for AUC: 186%
[10]; 3rd trimester
  Coefficient of variation (CV) for AUC: 194%
  Coefficient of variation (CV) for Cmax: 212%
  Coefficient of variation (CV) for Cmin: 154%
[10]; 14 visits with detectable HIV-1 RNA
  Minimum plasma concentration (Cmin), median (range): 30 (<10 – 93) ng/mL and 30 ng/mL
[10]; 62 visits with undetectable HIV-1 RNA
  Minimum plasma concentration (Cmin), median (range): 63 (15 – 199) ng/mL and 63 ng/mL
[10]; [14]
  C0 geometric mean (90% CI) ratio: 0.91 (0.61 – 1.38)
  C24 geometric mean (90% CI) ratio: 0.70 (0.55 – 0.90)
  CL/F geometric mean (90% CI) ratio: 1.33 (1.04 – 1.70)
  Cmax geometric mean (90% CI) ratio: 0.84 (0.69 – 1.02)
  Cmin geometric mean (90% CI) ratio: 0.88 (0.63 – 1.21)
  Vd/F geometric mean (90% CI) ratio: 1.50 (0.58 – 3.93)
  AUC24 geometric mean (90% CI) ratio: 0.77 (0.61 – 0.96)
[10]; [15]
  C0 geometric mean (90% CI) ratio: 1.30 (1.06 – 1.60)
  C24 geometric mean (90% CI) ratio: 1.09 (0.95 – 1.26)
  CL/F geometric mean (90% CI) ratio: 0.92 (0.81 – 1.05)
  Cmax geometric mean (90% CI) ratio: 1.13 (0.96 – 1.34)
  Cmin geometric mean (90% CI) ratio: 1.22(1.02 – 1.45)
  Vd/F geometric mean (90% CI) ratio: 0.36(0.22 – 0.58)
  AUC24 geometric mean (90% CI) ratio: 1.09 (0.96 – 1.23)
[10]; [16]
  C0 geometric mean (90% CI) ratio: 0.94 (0.59 – 1.50)
  C24 geometric mean (90% CI) ratio: 0.84 (0.57 – 1.23)
  CL/F geometric mean (90% CI) ratio: 1.26 (0.97 – 1.64)
  Cmax geometric mean (90% CI) ratio: 0.83 (0.68 – 1.01)
  Cmin geometric mean (90% CI) ratio: 1.11 (0.70 – 1.74)
  Vd/F geometric mean (90% CI) ratio: 1.42 (0.68 – 2.97)
  AUC24 geometric mean (90% CI) ratio: 0.80 (0.62 – 1.03)
[10]; female, human, plasma, oral, 25 mg, C24 (24 hour post-dose concentration), 25 mg once daily, second trimester, median (range)
  concentration at 24 h: 63 ng/mL
[10]; female, human, plasma, oral, 25 mg, 25 mg once daily, postpartum, median (range)
  Cmax: 134 ng/mL
[10]; [17]
  Cmax: 145 ng/mL
  Vd/F: 750 L
[10]; female, human, plasma, oral, 25 mg, 25 mg once daily, postpartum
  Tmax: 4 h
[10]; female, human, plasma, oral, 25 mg, 25 mg once daily, third trimester
  Tmax: 2 h
[10]; female, human, plasma, oral, 25 mg, 25 mg once daily, third trimester, median (range)
  Vd/F: 1210 L
[10]; human, plasma, oral, 25 mg, second trimester
  AUC: 12400 ng·h/mL
[10]; human, plasma, oral, 25 mg, third trimester
  AUC: 3600 ng·h/mL
[10]; postpartum
  Coefficient of variation (CV) for AUC: 60%
  Coefficient of variation (CV) for Cmax: 58%
  Coefficient of variation (CV) for Cmin: 71%
[10]; postpartum, 3 of 28
  Women below the AUC0–24 10th percentile target (880 ng*hr/mL): 11%
[10]; postpartum, 11 of 28
  Women with absorption lag (1 hour post-dose concentration less than pre-dose): 39%
[10]; second trimester
  C24 lower vs. postpartum: 30%
  Reduction of AUC compared to postpartum: 23%
[10]; second trimester, 1 of 15
  Women below the AUC0–24 10th percentile target (880 ng*hr/mL): 7%
[10]; second trimester, 9 of 18
  Women with absorption lag (1 hour post-dose concentration less than pre-dose): 50%
[10]; third trimester
  C24 lower vs. postpartum: 16%
  Reduction of drug exposure (AUC) compared to postpartum: 20%
[10]; third trimester, 2 of 28
  Women below the AUC0–24 10th percentile target (880 ng*hr/mL): 7%
[10]; third trimester, 13 of 30
  Women with absorption lag (1 hour post-dose concentration less than pre-dose): 43%

## CC(C)(C)NC(=O)[C@@H]1C[C@@H]2CCCC[C@@H]2CN1C[C@@H](O)[C@H](Cc1ccccc1)NC(=O)[C@H](CC(N)=O)NC(=O)c1ccc2ccccc2n1 [saquinavir]
[1]; in vivo
  AUC during pregnancy compared to postpartum: significant decreases

## CC(C)CN(C[C@@H](OP(=O)(O)O)[C@H](Cc1ccccc1)NC(=O)O[C@H]1CCOC1)S(=O)(=O)c1ccc(N)cc1 [fosamprenavir]
[1]; in vivo
  AUC during pregnancy compared to postpartum: significant decreases

## COC(=O)N[C@H](C(=O)N[C@@H](Cc1ccccc1)[C@@H](O)CN(Cc1ccc(-c2ccccn2)cc1)NC(=O)[C@@H](NC(=O)OC)C(C)(C)C)C(C)(C)C [atazanavir]
[1]; HIV protease inhibitors
  AUC during pregnancy compared to postpartum: significant decreases

## CC(C)(C)NC(=O)[C@@H]1CN(Cc2cccnc2)CCN1C[C@@H](O)C[C@@H](Cc1ccccc1)C(=O)N[C@H]1c2ccccc2C[C@H]1O [indinavir]
[1]; in vivo
  AUC during pregnancy compared to postpartum: significant decreases

## Cc1cc(C#N)cc(C)c1Oc1nc(Nc2ccc(C#N)cc2)nc(N)c1Br [etravirine]
[1]
  Exposure during pregnancy compared to postpartum: increased

## O=C1Nc2ccc(Cl)cc2[C@@](C#CC2CC2)(C(F)(F)F)O1 [efavirenz]
[1]
  Clearance during pregnancy: increased

## Cc1ccnc2c1NC(=O)c1cccnc1N2C1CC1 [nevirapine]
[1]; in vivo
  AUC reduced during third trimester compared to postpartum: 20%
  Cmax reduced during third trimester compared to postpartum: 20%
  Cmin reduced during third trimester compared to postpartum: 20%
